We go through 20 compounds from US10435399B2, “HDAC6 inhibitory heterocyclic compound” (TAKEDA PHARMACEUTICAL COMPANY LIMITED, priority 2017, dated 2019).

For the experiment, the target named is T1, HDAC6 enzyme (Homo sapiens, UniProt Q9UBN7).
T1 construct: transducing full length HDAC6 gene into Sf-9 insect cells; GST; purchased SignalChem; host or cells: Sf-9 insect cells
T1 sequence (Q9UBN7 1-1215): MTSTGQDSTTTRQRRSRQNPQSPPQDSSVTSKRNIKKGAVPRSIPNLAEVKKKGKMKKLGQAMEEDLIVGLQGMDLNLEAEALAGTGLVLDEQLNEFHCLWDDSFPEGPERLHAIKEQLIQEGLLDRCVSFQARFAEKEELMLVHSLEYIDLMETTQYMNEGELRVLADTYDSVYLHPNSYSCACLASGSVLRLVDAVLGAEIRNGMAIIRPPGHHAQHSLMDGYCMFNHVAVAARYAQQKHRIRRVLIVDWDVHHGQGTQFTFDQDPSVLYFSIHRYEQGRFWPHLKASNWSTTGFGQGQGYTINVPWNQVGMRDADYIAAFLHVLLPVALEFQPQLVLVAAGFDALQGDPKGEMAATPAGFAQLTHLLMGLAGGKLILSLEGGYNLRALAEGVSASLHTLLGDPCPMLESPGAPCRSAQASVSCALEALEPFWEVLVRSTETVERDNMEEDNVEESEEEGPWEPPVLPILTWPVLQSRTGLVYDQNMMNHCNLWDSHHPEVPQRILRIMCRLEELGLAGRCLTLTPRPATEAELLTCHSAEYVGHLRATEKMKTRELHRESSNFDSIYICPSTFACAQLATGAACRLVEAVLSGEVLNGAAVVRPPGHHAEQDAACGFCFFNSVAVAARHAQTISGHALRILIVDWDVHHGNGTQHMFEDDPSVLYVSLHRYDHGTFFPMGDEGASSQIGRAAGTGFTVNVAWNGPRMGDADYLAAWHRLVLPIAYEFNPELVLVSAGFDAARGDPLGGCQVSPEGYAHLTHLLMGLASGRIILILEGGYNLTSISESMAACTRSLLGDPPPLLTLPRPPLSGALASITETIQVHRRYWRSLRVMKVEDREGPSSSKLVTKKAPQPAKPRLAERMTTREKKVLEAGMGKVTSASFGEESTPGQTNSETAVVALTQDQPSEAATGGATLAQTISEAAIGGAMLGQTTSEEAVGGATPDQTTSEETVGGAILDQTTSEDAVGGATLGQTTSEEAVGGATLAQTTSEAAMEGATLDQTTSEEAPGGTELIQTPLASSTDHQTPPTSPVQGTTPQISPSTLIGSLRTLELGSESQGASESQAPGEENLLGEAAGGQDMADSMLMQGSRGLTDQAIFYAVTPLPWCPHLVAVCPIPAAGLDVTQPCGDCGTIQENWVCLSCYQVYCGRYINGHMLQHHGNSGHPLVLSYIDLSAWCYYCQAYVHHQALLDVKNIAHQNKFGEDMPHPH
Description: HDAC6 enzyme inhibitory activity (HDAC-Glo I/II Assay kit). The experiment is classed as biochemical. To be noted: 10 μM; wells without enzyme = 100% inhibition; read-out: HDAC6 inhibitory rate (%) (10 μM). As for the experimental part:
HDAC6 enzyme prepared by transducing full length HDAC6 gene into Sf-9 insect cells and purifying by GST affinity column were purchased from SignalChem. Using this enzyme, HDAC6 enzyme inhibitory activities of the compound of the present invention were evaluated. Enzymes were used after preserved at −70° C. HDAC6 enzyme inhibitory activity of the compound of the present invention was measured using HDAC-Glo™ I/II Assay kit (Promega) according to the following experimental method. The test compound diluted with assay buffer (24 mM Tris-HCl (pH 7.5), 1 mM MgCl2, 0.35 mM KCl, 135 mM NaCl, 0.6 mM Glutathione, 0.01% Tween-20) was added to a 384-well plate by each 2 μL. Then, HDAC6 enzyme solution diluted with assay buffer was added thereto by each 4 μL, and the plate was incubated at room temperature for 60 min. After incubated, HDAC substrate-Developer solution prepared according to Promega protocol attached to the assay kit was added to the 384-well plate by each 2 μL, and the enzyme reaction was started. After reacting at room temperature for 20 min, luminescence level was measured using plate reader Envision (PerkinElmer). The inhibitory activity of each compound of Example was calculated as a relative activity value when luminescence level in wells without enzyme is considered as 100% inhibition.
For `O=C(N[C@@H]1CCCC[C@H]1N1Cc2ccc(-c3nnc(C(F)F)o3)cc2C1=O)[C@H]1C[C@H]1F` (mixture of isomers) [Example 111, (1RS,2RS)-N-((1R,2R)-2-(6-(5-(difluoromethyl)-1,3,4-oxadiazol-2-yl)-1-oxo-1,3-dihydro-2H-isoindol-2-yl)cyclohexyl)-2-fluorocyclopropanecarboxamide], the inhibition at 10 µM was 101%. Next, `O=C(N[C@@H]1CCCC[C@H]1N1Cc2ccc(-c3nnc(C(F)F)o3)cc2C1=O)[C@@H]1C[C@H]1F` (racemic) [Example 69, (1SR,2RS)-N-((1R,2R)-2-(6-(5-(difluoromethyl)-1,3,4-oxadiazol-2--yl)-1-oxo-1,3-dihydro-2H-isoindol-2-yl)cyclohexyl)-2-fluorocyclopropanecarboxamide]: 101%; `COC(=O)N1CC[C@@H](c2ccc(F)cc2)[C@H](N2Cc3ccc(-c4nnc(C(F)F)o4)cc3C2=O)C1` (racemic) [Example 504, methyl (3SR,4SR)-3-(6-(5-(difluoro-methyl)-1,3,4-oxadiazol-2-yl)-1-oxo-1,3-dihydro-2H-isoindol-2-yl)-4-(4-fluoro-phenyl) piperidine-1-carboxylate]: 100%; `O=C1c2cc(-c3nnc(C(F)F)o3)ccc2CN1[C@@H]1CCCC[C@H]1n1cccn1` (racemic) [Example 514, 6-(5-(difluoromethyl)-1,3,4-oxadiazol-2-yl)-2-((1RS,2RS)-2-(1H-pyrazol-1-yl)cyclohexyl)isoindolin-1-one]: 99%.

As for `O=C1c2cc(-c3nnc(C(F)F)o3)cnc2CN1[C@@H]1CCCC[C@H]1n1cccn1` (racemic) [Example 526, 3-(5-(difluoromethyl)-1,3,4-oxadiazol-2-yl)-6-((1RS,2RS)-2-(1H-pyrazol-1-yl)cyclohexyl)-6,7-dihydro-5H-pyrrolo[3,4-b]pyridin-5-one], the inhibition at 10 µM was 101%. Regarding `O=C1c2cc(-c3nnc(C(F)F)o3)ccc2CN1[C@H]1CCCC[C@H]1n1cccn1` (racemic) [Example 527, 6-(5-(difluoromethyl)-1,3,4-oxadiazol-2-yl)-2-((1SR,2RS)-2-(1H-pyrazol-1-yl)cyclohexyl)isoindolin-1-one], the inhibition at 10 µM amounted to 99%. As to `O=C1c2cc(-c3nnc(C(F)F)o3)cnc2CN1[C@@H]1CCCC[C@H]1Oc1ccc(F)cc1` (racemic) [Example 535, 3-(5-(difluoromethyl)-1,3,4-oxadiazol-2-yl)-6-((1RS,2RS)-2-(4-fluorophenoxy)cyclohexyl)-6,7-dihydro-5H-pyrrolo[3,4-b]pyridin-5-one], the inhibition at 10 µM came to 99%. Next, `O=C1c2cc(-c3nnc(C(F)F)o3)cnc2CN1[C@H]1CCCC[C@H]1n1cccn1` (racemic) [Example 541, 3-(5-(difluoromethyl)-1,3,4-oxadiazol-2-yl)-6-((1SR,2RS)-2-(1H-pyrazol-1-yl)cyclohexyl)-6,7-dihydro-5H-pyrrolo[3,4-b]pyridin-5-one]: 99%; `O=C(C(F)F)N1CC[C@@H](c2ccc(F)cc2)[C@H](N2Cc3ccc(-c4nnc(C(F)F)o4)cc3C2=O)C1` (racemic) [Example 546, 2-((3SR,4SR)-1-(difluoroacetyl)-4-(4-fluorophenyl)piperidin-3-yl)-6-(5-(difluoromethyl)-1,3,4-oxadiazol-2-yl)isoindolin-1-one]: 100%; `O=C1c2cc(-c3nnc(C(F)F)o3)ccc2CN1[C@@H]1CN(C(=O)C(F)(F)C(F)(F)F)CC[C@H]1c1ccc(F)cc1` (racemic) [Example 548, 6-(5-(difluoromethyl)-1,3,4-oxadiazol-2-yl)-2-((3SR,4SR)-4-(4-fluorophenyl)-1-(2,2,3,3,3-pentafluoropropanoyl)piperidin-3-yl)isoindolin-1-one]: 100%. For `O=C1c2cc(-c3nnc(C(F)F)o3)ccc2CN1[C@@H]1CCCC[C@H]1c1ncco1` (racemic) [Example 549, 6-(5-(difluoromethyl)-1,3,4-oxadiazol-2-yl)-2-((1RS,2RS)-2-(1,3-oxazol-2-yl)cyclohexyl)isoindolin-1-one], the inhibition at 10 µM amounted to 100%. In the case of `N#C[C@@H]1CCCC[C@H]1N1Cc2ccc(-c3nnc(C(F)F)o3)cc2C1=O` (racemic) [Example 556, (1RS,2RS)-2-(6-(5-(difluoromethyl)-1,3,4-oxadiazol-2-yl)-1-oxo-1,3-dihydro-2H-isoindol-2-yl)cyclohexanecarbonitrile] it was 97%; in that of `O=C1c2cc(-c3nnc(C(F)F)o3)ccc2CN1[C@@H]1CCCC[C@H]1c1noc(C2CC2)n1` (racemic) [Example 558, 2-((1RS,2RS)-2-(5-cyclopropyl-1,2,4-oxadiazol-3-yl)cyclohexyl)-6-(5-(difluoromethyl)-1,3,4-oxadiazol-2-yl)isoindolin-1-one], 99%. For the compound `O=C1c2cc(-c3nnc(C(F)F)o3)ccc2CN1[C@@H]1CCCC[C@H]1Oc1cncc(F)c1` (racemic) [Example 559, 6-(5-(difluoromethyl)-1,3,4-oxadiazol-2-yl)-2-((1RS,2RS)-2-((5-fluoropyridin-3-yl)oxy)cyclohexyl)isoindolin-1-one], the inhibition at 10 µM was determined as 100%. With `O=C1c2cc(-c3nnc(C(F)F)o3)ccc2CN1[C@@H]1CCCC[C@H]1c1nc(C2CC2)no1` (racemic) [Example 561, 2-((1RS,2RS)-2-(3-cyclopropyl-1,2,4-oxadiazol-5-yl)cyclohexyl)-6-(5-(difluoromethyl)-1,3,4-oxadiazol-2-yl)isoindolin-1-one], the inhibition at 10 µM is 100%. Regarding `CC(C)(C)OC(=O)N1CCC[C@H](N2Cc3ccc(-c4nnc(C(F)F)o4)cc3C2=O)[C@H]1c1ccc(F)cc1` (racemic) [Example 574, tert-butyl (2RS,3SR)-3-(6-(5-(difluoromethyl)-1,3,4-oxadiazol-2-yl)-1-oxo-1,3-dihydro-2H-isoindol-2-yl)-2-(4-fluorophenyl)piperidine-1-carboxylate], the inhibition at 10 µM is 100%. In the case of `O=C1c2cc(-c3nnc(C(F)F)o3)ccc2CN1[C@H]1CCCN[C@@H]1c1ccc(F)cc1` (racemic) [Example 575, 6-(5-(difluoromethyl)-1,3,4-oxadiazol-2-yl)-2-((2RS,3SR)-2-(4-fluorophenyl)piperidin-3-yl)isoindolin-1-one], the inhibition at 10 µM was 100%. `CC(F)(F)C(=O)N1CCC[C@H](N2Cc3ccc(-c4nnc(C(F)F)o4)cc3C2=O)[C@H]1c1ccc(F)cc1` (racemic) [Example 576, 6-(5-(difluoromethyl)-1,3,4-oxadiazol-2-yl)-2-((2RS,3SR)-1-(2,2-difluoropropanoyl)-2-(4-fluorophenyl)piperidin-3-yl)isoindolin-1-one]: the inhibition at 10 µM is 99%. Consider `O=C1c2cc(-c3nnc(C(F)F)o3)ccc2CN1[C@H]1CCCN(C(=O)C(F)(F)C(F)(F)F)[C@@H]1c1ccc(F)cc1` (racemic) [Example 577, 6-(5-(difluoromethyl)-1,3,4-oxadiazol-2-yl)-2-((2RS,3SR)-2-(4-fluorophenyl)-1-(2,2,3,3,3-pentafluoropropanoyl)piperidin-3-yl)isoindolin-1-one], for which the inhibition at 10 µM stood at 97%. For `COC(=O)N1CCC[C@H](N2Cc3ccc(-c4nnc(C(F)F)o4)cc3C2=O)[C@H]1c1ccc(F)cc1` (racemic) [Example 578, methyl (2RS,3SR)-3-(6-(5-(difluoromethyl)-1,3,4-oxadiazol-2-yl)-1-oxo-1,3-dihydro-2H-isoindol-2-yl)-2-(4-fluorophenyl)piperidine-1-carboxylate], the inhibition at 10 µM was determined as 100%.
